Measurements: ChEMBL document CHEMBL4825690, “Synthesis and biological evaluation of chalcone-polyamine conjugates as novel vectorized agents in colorectal and prostate cancer chemotherapy” (Eur J Med Chem, 2021)
The source made the active and inactive calls. No cut-off for these calls is given here.

Legend:
HT-29 [1] = assay: Induction of apoptosis in human HT-29 cells assessed as decrease in PARP protein expression by Western blot assay; format: functional, cell-based
HT-29 [2] = assay: Induction of cell cycle arrest at G1 phase in human HT-29 cells assessed as reduction in CDK4 expression by Western blot analysis; format: functional, cell-based
PC-3 [3] = assay: Induction of cell cycle arrest in human PC-3 cells assessed as decrease in Cdc2 expression by Western blot analysis; format: functional, cell-based
HT-29 [4] = assay: Induction of apoptosis in human HT-29 cells assessed as increase in cleaved PARP protein expression by Western blot assay; format: functional, cell-based
HT-29 [5] = assay: Induction of cell cycle arrest in human HT-29 cells assessed as accumulation at S phase at IC50 incubated for 48 hrs by RNaeA/propidium iodide based flow cytometry analysis (reference value: 32.45 %); format: functional
HT-29 [6] = assay: Induction of cell cycle arrest in human HT-29 cells assessed as accumulation at G1 phase at IC50 incubated for 48 hrs by RNaeA/propidium iodide based flow cytometry analysis (reference value: 54.39 %); format: functional
DU-145 [7] = assay: Induction of apoptosis in human DU-145 cells assessed as increase in DNA fragmentation after 48 hrs by ELISA relative to control; format: functional
HCT-116 [8] = assay: Induction of cell cycle arrest in human HCT-116 cells assessed as increase in Cyclin D1 expression by Western blot analysis; format: functional, cell-based
DU-145 [9] = assay: Induction of apoptosis in human DU-145 cells assessed as necrotic cells incubated for 48 hrs by annexin-V/FITC and propidium iodide staining based flow cytometry analysis (reference value: 0.04 %); format: functional
DU-145 [10] = assay: Induction of apoptosis in human DU-145 cells assessed as late apoptotic cells incubated for 48 hrs by annexin-V/FITC and propidium iodide staining based flow cytometry analysis (reference value: 2.56 %); format: functional
HT-29 [11] = assay: Induction of apoptosis in human HT-29 cells assessed as late apoptotic cells incubated for 48 hrs by annexin-V/FITC and propidium iodide staining based flow cytometry analysis (reference value: 9.52%); format: functional
HCT-116 [12] = assay: Induction of apoptosis in human HCT-116 cells assessed as early apoptotic cells incubated for 48 hrs by annexin-V/FITC and propidium iodide staining based flow cytometry analysis (reference value: 5.21 %); format: functional
DU-145 [13] = assay: Induction of apoptosis in human DU-145 cells assessed as decrease in PARP protein expression by Western blot assay; format: functional, cell-based
PC-3 [14] = assay: Induction of apoptosis in human PC-3 cells assessed as viable cells incubated for 48 hrs by annexin-V/FITC and propidium iodide staining based flow cytometry analysis (reference value: 92.95 %); format: functional
HT-29 [15] = assay: Induction of cell cycle arrest in human HT-29 cells assessed as accumulation at G2 phase at IC50 incubated for 48 hrs by RNaeA/propidium iodide based flow cytometry analysis (reference value: 13..16 %); format: functional
HT-29 [16] = assay: Induction of apoptosis in human HT-29 cells assessed as increase in caspase-3 level by Western blot assay; format: functional, cell-based
PC-3 [17] = assay: Induction of apoptosis in human PC-3 cells assessed as late apoptotic cells incubated for 48 hrs by annexin-V/FITC and propidium iodide staining based flow cytometry analysis (reference value: 2.13 %); format: functional
DU-145 [18] = assay: Induction of apoptosis in human DU-145 cells assessed as viable cells incubated for 48 hrs by annexin-V/FITC and propidium iodide staining based flow cytometry analysis (reference value: 94.13 %); format: functional
DU-145 [19] = assay: Induction of cell cycle arrest in human DU-145 cells assessed as accumulation at sub-G1 phase at IC50 incubated for 48 hrs by RNaeA/propidium iodide based flow cytometry analysis (reference value: 0 %); format: functional
PC-3 [20] = assay: Induction of apoptosis in human PC-3 cells assessed as increase in caspase-3 level by Western blot assay; format: functional, cell-based
HT-29 [21] = assay: Induction of cell cycle arrest at G1 phase in human HT-29 cells assessed as reduction in Cyclin E2 expression by Western blot analysis; format: functional, cell-based
HCT-116 [22] = assay: Induction of apoptosis in human HCT-116 cells assessed as viable cells incubated for 48 hrs by annexin-V/FITC and propidium iodide staining based flow cytometry analysis (reference value: […] %); format: functional
DU-145 [23] = assay: Induction of apoptosis in human DU-145 cells assessed as early apoptotic cells incubated for 48 hrs by annexin-V/FITC and propidium iodide staining based flow cytometry analysis (reference value: 3.27 %); format: functional
DU-145 [24] = assay: Induction of cell cycle arrest in human DU-145 cells assessed as accumulation at G2 phase at IC50 incubated for 48 hrs by […]/propidium iodide based flow cytometry analysis (reference value: 16.06 %); format: functional
HCT-116 [25] = assay: Induction of apoptosis in human HCT-116 cells assessed as late apoptotic cells incubated for 48 hrs by annexin-V/FITC and propidium iodide staining based flow cytometry analysis (reference value: 7.22 %); format: functional
HT-29 [26] = assay: Induction of apoptosis in human HT-29 cells assessed as increase in DNA fragmentation after 48 hrs by ELISA relative to control; format: functional
DU-145 [27] = assay: Induction of apoptosis in human DU-145 cells assessed as decrease in pro-caspase-3 expression by Western blot assay; format: functional, cell-based
PC-3 [28] = assay: Induction of apoptosis in human PC-3 cells assessed as decrease in pro-caspase-3 expression by Western blot assay; format: functional, cell-based
PC-3 [29] = assay: Induction of cell cycle arrest in human PC3 cells assessed as accumulation at G2 phase at IC50 incubated for 48 hrs by RNaeA/propidium iodide based flow cytometry analysis (reference value: 23.73 %); format: functional
HCT-116 [30] = assay: Induction of apoptosis in human HCT-116 cells assessed as decrease in pro-caspase-3 expression by Western blot assay; format: functional, cell-based
DU-145 [31] = assay: Induction of apoptosis in human DU-145 cells assessed as increase in cleaved PARP protein expression by Western blot assay; format: functional, cell-based
HCT-116 [32] = assay: Induction of cell cycle arrest in human HCT-116 cells assessed as reduction in CDK2 expression by Western blot analysis; format: functional, cell-based
Tubulin (Homo sapiens) = Tubulin (Homo sapiens) (UniProt P68371+Q9H4B7+P0DPH7+P68366+Q13509+Q71U36+P04350+Q3ZCM7+P07437+P68363+Q9BQE3+Q6PEY2+Q13885+Q9BVA1+Q9BUF5); assay: Inhibition of tubulin polymerization in human HeLa cells measured after 2 hrs by fluorescent immunostaining method; format: cell-based
HCT-116 [33] = assay: Induction of apoptosis in human HCT-116 cells assessed as increase in DNA fragmentation after 48 hrs by ELISA relative to control; format: functional
PC-3 [34] = assay: Induction of apoptosis in human PC-3 cells assessed as necrotic cells incubated for 48 hrs by annexin-V/FITC and propidium iodide staining based flow cytometry analysis (reference value: 0.54 %); format: functional
PC-3 [35] = assay: Induction of cell cycle arrest in human PC-3 cells assessed as decrease in cyclin A2 expression by Western blot analysis; format: functional, cell-based
DU-145 [36] = assay: Induction of cell cycle arrest in human DU-145 cells assessed as accumulation at G1 phase at IC50 incubated for 48 hrs by […]/propidium iodide based flow cytometry analysis (reference value: 45.5 %); format: functional
DU-145 [37] = assay: Induction of cell cycle arrest in human DU-145 cells assessed as effect on cyclin B1 expression by Western blot analysis; format: functional, cell-based
DU-145 [38] = assay: Induction of cell cycle arrest in human DU-145 cells assessed as effect on cyclin A2 expression by Western blot analysis; format: functional, cell-based

## COc1cc(C(=O)/C=C/c2ccc(OCCCNCCCNCCCCN)cc2)cc(OC)c1OC
HT-29 [1]
  Activity: Active
HT-29 [2]
  Activity: Active
PC-3 [3]
  Activity: Active
HT-29 [4]
  Activity: Active
HT-29 [5]
  Activity: 26.03%
HT-29 [6]
  Activity: 60.65%
DU-145 [7]
  fold change (FC): 4.88
HCT-116 [8]
  Activity: Active
DU-145 [9]
  Activity: 0.05%
DU-145 [10]
  Activity: 8.74%
HT-29 [11]
  Activity: 31.39%
HCT-116 [12]
  Activity: 22.92%
DU-145 [13]
  Activity: Active
PC-3 [14]
  Activity: 50.47%
HT-29 [15]
  Activity: 13.32%
HT-29 [16]
  Activity: Active
PC-3 [17]
  Activity: 12.65%
DU-145 [18]
  Activity: 38.96%
DU-145 [19]
  Activity: 9.28%
PC-3 [20]
  Activity: Active
HT-29 [21]
  Activity: Active
HCT-116 [22]
  Activity: 52.13%
DU-145 [23]
  Activity: 52.25%
DU-145 [24]
  Activity: 34.55%
HCT-116 [25]
  Activity: 21.6%
HT-29 [26]
  fold change (FC): 2.07
DU-145 [27]
  Activity: Active
PC-3 [28]
  Activity: Active
PC-3 [29]
  Activity: 58.17%
HCT-116 [30]
  Activity: Active
DU-145 [31]
  Activity: Active
HCT-116 [32]
  Activity: Active
Tubulin (Homo sapiens)
  inhibition: inactive
HCT-116 [33]
  fold change (FC): 4.72
PC-3 [34]
  Activity: 2.63%
PC-3 [35]
  Activity: Active
DU-145 [36]
  Activity: 28.11%
DU-145 [37]
  Activity: inactive
DU-145 [38]
  Activity: inactive
